In publication PMC11372076, “A dual inhibitor of PIP5K1C and PIKfyve prevents SARS-CoV-2 entry into cells” (Experimental & Molecular Medicine, 2024):

How the values were obtained:
Format in all cases: biochemical
PIP5K1A = PIP5K1A (Homo sapiens, UniProt Q99755); test: SelectScreen Kinase Profiling Service (single point and 10 point titration)
Source text: (§1) UNI418 has a core structure consisting of 4-quinazolinamine (Fig. 1a, green), which is often found in kinase inhibitors. […] The phosphoinositide (PI) system is a crucial regulatory mechanism in membrane trafficking and is tightly regulated through phosphorylation cascades by multiple phosphatidylinositol phosphate kinases (PIPKs)[30]. We hypothesized that UNI418 may inhibit PIPK(s) and performed PIPK profiling analysis. […] To test whether UNI418 interacts with PIP5K1C and PIKfyve, we performed a CETSA, which determines the characteristics of protein stabilization upon ligand binding to the target protein[31]. UNI418- or DMSO-treated cell lysates were incubated at different temperatures, and the presence of the target protein in the soluble fraction was analyzed by Western blotting (Fig. 1c).
(§2) Fig. 1 UNI418 specifically targets PIP5K1 and PIKfyve. a Chemical structure of UNI418. The 4-quinazolinamine core is highlighted in green. b Table of the kinase profiling analysis. Inhibition of several kinases was determined at a 1 μM concentration of UNI418 and analyzed by the SelectScreen Kinase Profiling Service (Thermo Fisher Scientific). c Cellular thermal shift assay. Ectopically expressed GFP-PIP5K1C and GFP-PIKfyve were heated to the indicated temperatures with/without UNI418, and the presence of protein in the soluble fraction was analyzed by Western blot analysis. TEXT PRINTED IN THE PICTURE: (b) UNI418: % Inhibition (mean): 11 ([ATP] Tested (μM): 10; Kinase Tested: PI4K2A (PI4K2 alpha)); % Inhibition (mean): 4 ([ATP] Tested (μM): 10; Kinase Tested: PI4K2B (PI4K2 beta)); % Inhibition (mean): -6 ([ATP] Tested (μM): 10; Kinase Tested: PI4KA (PI4K alpha)); % Inhibition (mean): 48 ([ATP] Tested (μM): Km app; Kinase Tested: PI4KB (PI4K beta)); % Inhibition (mean): 20 ([ATP] Tested (μM): 10; Kinase Tested: PIK3C2B (PI3K-C2 beta)); % Inhibition (mean): 22 ([ATP] Tested (μM): 10; Kinase Tested: PIK3C2G (PI3K-C2 gamma)); % Inhibition (mean): 4 ([ATP] Tested (μM): 100; Kinase Tested: PIK3C3 (hVPS34)); % Inhibition (mean): 8 ([ATP] Tested (μM): 10; Kinase Tested: PIK3CA/PIK3R3 (p110 alpha/p55 gamma)); % Inhibition (mean): 7 ([ATP] Tested (μM): 10; Kinase Tested: PIK3CB/PIK3R2 (p110 beta/p85 beta)); % Inhibition (mean): 9 ([ATP] Tested (μM): 10; Kinase Tested: PIP4K2A); % Inhibition (mean): 67 ([ATP] Tested (μM): 10; Kinase Tested: PIP5K1A); % Inhibition (mean): 93 ([ATP] Tested (μM): 10; Kinase Tested: PIP5K1B); % Inhibition (mean): 93 ([ATP] Tested (μM): 10; Kinase Tested: PIP5K1C); % Inhibition (mean): 100 ([ATP] Tested (μM): 100; Kinase Tested: PIKFYVE) | (b) Apilimod: % Inhibition (mean): 100 ([ATP] Tested (μM): 100; Kinase Tested: PIKFYVE) […]
(§3) Supplementary Fig. 2 UNI418 inhibits PIP5K1B/C and PIKfyve. a Inhibition graph of PIP5K1 kinases at the 10 point titration with UNI418. IC 50 value of PIP5K1 kinases was analyzed by Thermo Fisher Scientific’s SelectScreen kinase profiling service. b Kd (nM) values of PIP5K1C and PIKfyve inhibition were determined using the Eurofins kinase assay service.
(§4) (1 picture or pasted object on this page, not shown here)

PIP5K1B = PIP5K1B (Homo sapiens, UniProt O14986); test: as above
Source text: as §1, §2, §3, §4

PIP5K1C = PIP5K1C (Homo sapiens, UniProt O60331); test: as above
Source text: as §1, §2, §3, §4

PI4K2A (PI4K2 alpha) = test: SelectScreen Kinase Profiling Service (PIPK profiling); conditions: 1 μM UNI418; [ATP] 10 μM
Source text: as §1, §2

PI4K2B (PI4K2 beta) = test: as above; conditions: 1 μM UNI418; [ATP] 10 μM
Source text: as §1, §2

PI4KA (PI4K alpha) = test: as above; conditions: 1 μM UNI418; [ATP] 10 μM
Source text: as §1, §2

PI4KB (PI4K beta) = test: as above; conditions: 1 μM UNI418; [ATP] Km app
Source text: as §1, §2

PIK3C2B (PI3K-C2 beta) = test: as above; conditions: 1 μM UNI418; [ATP] 10 μM
Source text: as §1, §2

PIK3C2G (PI3K-C2 gamma) = test: as above; conditions: 1 μM UNI418; [ATP] 10 μM
Source text: as §1, §2

PIK3C3 (hVPS34) = test: as above; conditions: 1 μM UNI418; [ATP] 100 μM
Source text: as §1, §2

[1] = system: PIK3CA/PIK3R3 (p110 alpha/p55 gamma); test: as above; conditions: 1 μM UNI418; [ATP] 10 μM
Source text: as §1, §2

[2] = system: PIK3CB/PIK3R2 (p110 beta/p85 beta); test: as above; conditions: 1 μM UNI418; [ATP] 10 μM
Source text: as §1, §2

PIP4K2A = test: as above; conditions: 1 μM UNI418; [ATP] 10 μM
Source text: as §1, §2

PIP5K1A, sequence (Q99755 whole entry): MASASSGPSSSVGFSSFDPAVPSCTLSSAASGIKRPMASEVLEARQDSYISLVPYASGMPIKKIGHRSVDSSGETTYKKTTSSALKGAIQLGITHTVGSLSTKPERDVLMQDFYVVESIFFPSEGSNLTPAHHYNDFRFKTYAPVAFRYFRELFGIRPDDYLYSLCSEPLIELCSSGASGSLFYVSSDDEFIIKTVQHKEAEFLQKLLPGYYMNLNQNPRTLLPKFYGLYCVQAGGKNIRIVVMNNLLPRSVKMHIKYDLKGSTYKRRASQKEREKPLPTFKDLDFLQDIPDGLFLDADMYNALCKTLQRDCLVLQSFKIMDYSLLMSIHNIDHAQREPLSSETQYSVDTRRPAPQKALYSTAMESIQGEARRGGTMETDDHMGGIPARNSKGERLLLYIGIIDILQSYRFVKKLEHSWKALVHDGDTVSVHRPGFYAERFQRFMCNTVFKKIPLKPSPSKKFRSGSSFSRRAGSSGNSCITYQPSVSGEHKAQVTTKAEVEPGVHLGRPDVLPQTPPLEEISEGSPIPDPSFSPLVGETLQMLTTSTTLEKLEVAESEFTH
PIP5K1C, sequence (O60331 whole entry): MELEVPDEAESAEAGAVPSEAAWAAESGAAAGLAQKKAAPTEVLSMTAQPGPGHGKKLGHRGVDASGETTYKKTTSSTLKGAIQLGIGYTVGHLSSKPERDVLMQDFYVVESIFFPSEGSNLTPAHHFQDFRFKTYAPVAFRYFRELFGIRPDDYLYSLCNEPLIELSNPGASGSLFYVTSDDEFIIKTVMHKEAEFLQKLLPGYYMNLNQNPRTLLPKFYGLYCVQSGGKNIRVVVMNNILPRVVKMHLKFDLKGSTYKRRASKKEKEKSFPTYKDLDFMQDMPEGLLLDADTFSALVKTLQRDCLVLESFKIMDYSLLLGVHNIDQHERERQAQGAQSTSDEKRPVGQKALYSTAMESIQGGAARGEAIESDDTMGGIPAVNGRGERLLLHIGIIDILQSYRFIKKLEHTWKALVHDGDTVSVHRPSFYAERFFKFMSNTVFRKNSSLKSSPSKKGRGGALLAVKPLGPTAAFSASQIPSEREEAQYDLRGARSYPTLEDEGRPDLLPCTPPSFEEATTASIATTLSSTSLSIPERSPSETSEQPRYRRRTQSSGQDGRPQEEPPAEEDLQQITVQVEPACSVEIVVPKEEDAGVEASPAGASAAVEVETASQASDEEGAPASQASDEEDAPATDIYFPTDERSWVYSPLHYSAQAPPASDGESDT
PIP5K1B, sequence (O14986 whole entry): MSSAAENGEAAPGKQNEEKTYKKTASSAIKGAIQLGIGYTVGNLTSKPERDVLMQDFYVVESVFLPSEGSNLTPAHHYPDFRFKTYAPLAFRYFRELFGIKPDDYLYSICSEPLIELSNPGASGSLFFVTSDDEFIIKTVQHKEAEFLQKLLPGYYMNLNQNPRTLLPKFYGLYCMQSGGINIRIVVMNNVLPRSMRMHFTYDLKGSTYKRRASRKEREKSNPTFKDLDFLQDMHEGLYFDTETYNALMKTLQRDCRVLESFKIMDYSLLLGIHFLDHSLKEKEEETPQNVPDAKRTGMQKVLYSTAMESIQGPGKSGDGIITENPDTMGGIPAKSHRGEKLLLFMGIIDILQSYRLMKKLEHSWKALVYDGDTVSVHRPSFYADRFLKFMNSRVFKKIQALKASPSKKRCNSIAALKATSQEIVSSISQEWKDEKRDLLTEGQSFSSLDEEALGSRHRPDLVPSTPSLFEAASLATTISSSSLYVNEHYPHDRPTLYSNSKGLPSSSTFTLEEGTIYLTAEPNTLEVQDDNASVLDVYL

c1ccc(-c2cc(Nc3nc(-c4ccncc4)nc4ccccc34)n[nH]2)cc1 [UNI418, N -(5-phenyl-1 H -pyrazol-3-yl)-2-(4-pyridinyl)-4-quinazolinamine]
IC50 (PIP5K1A): 255 nM | inhibition at 1 µM (PIP5K1A; 1 μM UNI418, [ATP] 10 μM): 67% | IC50 (PIP5K1B): 60.7 nM | inhibition at 1 µM (PIP5K1B; 1 μM UNI418, [ATP] 10 μM): 93% | IC50 (PIP5K1C): 60.1 nM | inhibition at 1 µM (PIP5K1C; 1 μM UNI418, [ATP] 10 μM): 93% | % Inhibition (mean) (PI4K2A (PI4K2 alpha)): 11% | % Inhibition (mean) (PI4K2B (PI4K2 beta)): 4% | % Inhibition (mean) (PI4KA (PI4K alpha)): -6% | % Inhibition (mean) (PI4KB (PI4K beta)): 48% | % Inhibition (mean) (PIK3C2B (PI3K-C2 beta)): 20% | % Inhibition (mean) (PIK3C2G (PI3K-C2 gamma)): 22% | % Inhibition (mean) (PIK3C3 (hVPS34)): 4% | % Inhibition (mean) [1]: 8% | % Inhibition (mean) [2]: 7% | % Inhibition (mean) (PIP4K2A): 9%
